Test results from patent US20220133641A1, “TOPICAL FILM-FORMING SPRAY” (GRACE THERAPEUTICS INC., priority 2015, published 2022).
Structures can show the parent of a compound that is named as a salt.

Experiments:
[1] = In-vivo study in healthy rats, drug plasma concentration after 4 sprays; conditions: rat, topical
Description: A total of 4 sprays were applied (two sprays on the back and two sprays on the abdominal area of the animal) using a metered dose mechanical spray pump. Blood samples were collected at 15, 30 minutes, 1, 2, 4, 8 and 24 hours. All samples were analyzed using a validated analytical LC-MS method.

[2] = Solubility study for drug saturation in spray vehicle (Example 45); format: physicochemical
Description: Solubility studies to find out concentration at which the drug is present at saturation levels were performed as follows: The drug (bupivacaine hydrochloride 2, 4, 8, 10,12 & 16 mg) was added to, propylene glycol, oleyl alcohol and menthol in ethanol under stirring and mixing till clear solution is formed. The film-forming polymer in the clear drug solution was added while stirring till polymer dissolves or hydrates completely.

concentration at 0 h ([1]; 8 mg strength): 1 ng/mL
concentration at 0.25 h ([1]; 8 mg strength): 82 ng/mL
concentration at 0.5 h ([1]; 8 mg strength): 119 ng/mL
concentration at 1 h ([1]; 8 mg strength): 148 ng/mL
concentration at 2 h ([1]; 8 mg strength): 95 ng/mL
concentration at 4 h ([1]; 8 mg strength): 221 ng/mL
concentration at 8 h ([1]; 8 mg strength): 147 ng/mL
concentration at 24 h ([1]; 8 mg strength): 55 ng/mL
concentration at 0 h ([1]; 12 mg strength): 0 ng/mL
concentration at 0.25 h ([1]; 12 mg strength): 73 ng/mL
concentration at 0.5 h ([1]; 12 mg strength): 109 ng/mL
concentration at 1 h ([1]; 12 mg strength): 249 ng/mL
concentration at 2 h ([1]; 12 mg strength): 180 ng/mL
concentration at 4 h ([1]; 12 mg strength): 270 ng/mL
concentration at 8 h ([1]; 12 mg strength): 329 ng/mL
concentration at 24 h ([1]; 12 mg strength): 172 ng/mL
appearance of drug solution on standing ([2]; other solutions (2, 4, 8, 10, 12 mg)): clear and no precipitate was observed
concentration at which drug saturation was achieved ([2]; propylene glycol, oleyl alcohol, menthol, ethanol, film-forming polymer): about 12 mg per spray
Structure (SMILES): CCCCN1CCCCC1C(=O)Nc1c(C)cccc1C (stereo not shown) [Bupivacaine HCl]
appearance of drug solution on standing ([2]; 16 mg of drug): precipitated out from clear solution after standing
